# Several values for one entry are separate records, joined by “and”; a condition that tells them apart may be missing. Identical values can stand only once.
# Test system: transferred CD45.1+ OT-II Th9 cells
# Test: Flow cytometry of transferred CD45.1+ OT-II Th9 cells in spleen, LN, tumor (Figure 2B-C, S1C-E)
# Format: in vivo, mouse
# Conditions: for Frequencies of transferred CD45.1⁺ OT-II Th9 cells among CD45⁺ cells in LN: Supplemental Figure 1D left; for number of transferred CD45.1⁺ OT-II Th9 cells among CD45⁺ cells in LN: Supplemental Figure 1D right; for CD45.1+ gate number: representative flow plot
# Method: C57BL/6 mice were subcutaneously injected with 5 × 10^5 B16-OVA melanoma cells. Five days after tumor implantation, mice received an intravenous infusion of 2 × 10^6 in vitro–differentiated Th9 cells (cultured for 5 days), which were derived from OT-II CD45.1 donor mice, accompanied by 4 × 10^5 OVA peptide–pulsed DCs via the tail vein. To enhance T cell engraftment and facilitate lymphodepletion, a single intraperitoneal injection of cyclophosphamide (200 mg/kg, Sigma, catalog C0768) was administered 1 day prior to T cell transfer. Mice were euthanized at designated time points for the collection and analysis of spleens, tumor-draining lymph nodes, and tumor tissues.
# Details regarding staining panels (human and mouse), reagents (including clones and catalog numbers), acquisition settings, compensation/controls, and analysis procedures are provided in Supplemental Methods.
# BioLegend, Cat. No. 422301 or Mouse TruStain FcX™, BioLegend, Cat. No. 101319) for 10 minutes at 4°C. For surface marker detection, cells were stained with fluorochrome-conjugated monoclonal antibodies in 96-well V-bottom plates and incubated on ice for 30 minutes. After staining, cells were washed twice and resuspended in FACS buffer for analysis.
# Prior to intracellular cytokine staining, cells were restimulated for 4 hours with PMA (Absin, Cat. No. abs9107), ionomycin (Sigma-Aldrich, Cat. No. I0634), and brefeldin A (MedChemExpress, Cat. No. HY-16592). For intracellular cytokine staining, cells were first surface-stained as described above, then fixed and permeabilized using the BD Cytofix/Cytoperm™ kit (BD Biosciences, Cat. No. 554714) according to the manufacturer ’s protocol. Intracellular proteins were stained with directly conjugated antibodies targeting IL-9, IL-17a, IL-4, IFN-γ, TNF-α, FOXP3, p-ZAP70, Perforin, and […]
# Antibodies used for mouse samples included those against IL-9 (PE, clone RM9A4, Biolegend, Cat. No. 514104), IFN-γ (PE, clone XMG1.2, Biolegend, Cat. No.
# Cat. No. 103138), CD4 (APC/Cy7, clone E-AB-F1353UJ, Elabscience, Cat. No.
# AF18028), CD8α (PerCP/Cy5.5, clone E-AB-F1104UJ, Elabscience, Cat. No. […]
# clone E-AB-F1187UH, Elabscience, Cat. No. AF19854), TNF-α (BV421, clone MP6-XT22, Biolegend, Cat. No. 506328), FOXP3 (PE, clone FJK-16s, eBioscience, Cat. No.
# Perforin (APC, clone S16009A, Biolegend, Cat. No. 154303) and Granzyme B (APC, […]
# clone QA16A02, Biolegend, Cat. No. 372203). […]
# Figure S1. EpA enhances immune responses. […]
# Representative flow-cytometric plots showing transferred CD45.1⁺ OT-II Th9 cells in spleens (C), tumor-draining lymph nodes (LNs) (D), and tumors (E); frequencies Figure S1 and absolute numbers of CD45.1⁺ OT-II Th9 cells in LNs are quantified in (D). (F– […]
# Statistical analysis was performed using two-way ANOVA with Tukey’s post hoc test (A), one-way ANOVA with Tukey’s post hoc test (B) or two-tailed unpaired Student’s t-test (D and G–M). ns, not significant. *p < 0.05, **p < 0.01, ****p < 0.0001.
# (also on this page, place not known: Mouse weight (g) CtrlEpA CtrlEpA CtrlEpA0 I CD45.1+ T cells (%) CtrlEpA CD4+ T cells (%) CtrlEpA CtrlEpA CtrlEpA FSC CD8 CD8 FSC FSC FSC BNumber of CD45.1+ T cells (×103 per mgĎ Number of CD4+ T cells (×104 per mgĎ DC (%)NK cells (%) NK cells (%) DC (%) Number of DC (×103 per mg) Number of NK cells (×105) Number of NK cells (×103 per mg) Number of DC (×105) FSC FSC FSC CD8 CtrlEpA CtrlEpA CtrlEpA CD8+ T cells (%) Number of CD8+ T cells (×104 per mgĎ nsns ns nsns ns 40 IL-6 (pg/ml)) […]
# [1] = spleens, individual mice, n = 4
substance,measurement,setting,value
anteiso-C15 Leu7 surfactin [EpA],Frequencies of transferred CD45.1⁺ OT-II Th9 cells among CD45⁺ cells in LN,"LN, replicate 1",25.5%
same,Frequencies of transferred CD45.1⁺ OT-II Th9 cells among CD45⁺ cells in LN,"LN, replicate 2",16.2%
same,Frequencies of transferred CD45.1⁺ OT-II Th9 cells among CD45⁺ cells in LN,"LN, replicate 3",15.5%
same,Frequencies of transferred CD45.1⁺ OT-II Th9 cells among CD45⁺ cells in LN,"LN, replicate 4",16.6%
same,number of transferred CD45.1⁺ OT-II Th9 cells among CD45⁺ cells in LN,"LN, replicate 1",12444.4
same,number of transferred CD45.1⁺ OT-II Th9 cells among CD45⁺ cells in LN,"LN, replicate 2",12569.8
same,number of transferred CD45.1⁺ OT-II Th9 cells among CD45⁺ cells in LN,"LN, replicate 3",11818.2
same,number of transferred CD45.1⁺ OT-II Th9 cells among CD45⁺ cells in LN,"LN, replicate 4",11251.4
same,CD45.1+ gate number,"LN, Figure S1D",15.5%
same,CD45.1+ gate number,"Spleen, Figure S1C",11.7%
same,CD45.1+ gate number,"Tumor, Figure S1E",6.7%
same,expansion of transferred cells,"lymph nodes, result in words",moderately in the lymph nodes
same,expansion of transferred cells,"spleen, result in words",expanded robustly in the spleen
same,Total CD45.1(%) among CD45+ cells,[1],11.1% and 9.13% and 7.88% and 11.8%
same,number of CD45.1+ T cells,[1],854404 and 834158 and 848241 and 1565169
same,CD45.1 (%) among CD4+ cells,"tumors, individual mice, n = 4",6.68% and 1.49% and 0.81% and 0.8%
same,number of CD45.1+ OT-II Th9 cells,"tumors, individual mice, n = 4",16 and 22 and 24 and 15
same,absolute number of transferred cells,"tumors, result in words",markedly increased
same,frequency of transferred cells,"tumors, result in words",remained comparable
